Heme oxygenase data for one compound are collected here from US5783201A, “Method for treating non-ocular epithelial disorders via increasing heme oxygenase levels and/or decreasing levels of arachidonic acid derivatives” (Hemogen, Inc., priority 1997, dated 1998).

The subject of this assay is heme oxygenase. Kind of assay: microsomal heme oxygenase activity in CCD-860SK skin fibroblast cells. In kind it is cell-based, human. The following applies: 100 μM; CCD-860 skin fibroblast cells, collected after two hours; mean ± SD; control 294 ± 18. Here is the method:
Cell line CCD-860SK is a human skin fibroblast cell line which is publicly available from the American Type Culture Collection. Cell cultures of this line were propagated in Iscove's modified Dulbecco's medium supplemented with 10% fetal bovine […]. Following propagation, they were grown in 175 cm^2 Falcon tissue culture flasks, using Iscove's modified Dulbecco's medium, supplemented with 10% (v/v) heat inactivated fetal bovine serum, 50 U penicillin/ml, 50 ug streptomycin/ml, and 2 mM glutamine. The cells were then seeded into culture flasks at a concentration of 1×10^5 cells/ml, and incubated at 37° C. in a humidified 5% CO2 /95% air chamber. After three days, old media were removed, and replaced with fresh media. […]
To measure total enzyme activity, microsomes were prepared as described by Tenhunen et al., J. Biol. Chem. 244: 6388-6394 (1969), incorporated by reference herein. The activity of microsomal heme oxygenase was then determined, using 0.5-1 mg protein in an incubation medium as described by Tenhunen et al., supra. Total protein was then determined using the classic method of Lowry et al., J. Biol. Chem. 193: […] (1951), using bovine serum albumin as standard.

The compound `[Cl][Sn][Cl]` [SnCl2] registered a Heme oxygenase of 802 ± 49 pmol bilirubin/mg/hr.
